Results reported in patent US20230104281A1, “FLUORESCENT RHODAMINE DYES WITH ENHANCED CELL PERMEABILITY” (Max-Planck-Gesellschaft zur Foerderung der Wissenschaften …, priority 2020, published 2023).

Columns and labels:
[1] = Absorbance in 1,4-dioxane-water mixtures (D50, spirolactone-zwitterion equilibrium); type: physicochemical; conditions: 1,4-Dioxane-Water with constant 0.3% SDS additive; dielectric constant at which absorbance is halved
Experimental: The D50 values indicated herein are determined by measuring the respective absorbance of a sample (dye isomer or derivative or conjugate thereof), in varied water-1,4-dioxane mixtures with known dielectric constants according to an established method (e.g. Åkerlöf G, Short AO. J Am Chem Soc 1936, 58(7): 1241-1243). D50 is commonly used as numeric value for the evaluation of the equilibrium changes and represents a dielectric constant at which absorbance is halved (Butkevich A. N.; Mitronova G. Y.; Sidenstein. S. C.; Klocke J. L.; Kamin D.; Meineke D. N. H.; D'Este E.; Kraemer P. T.; Danzl J. G.; Belov V. N.; Hell S. W., Angew. Chem. Int. Ed. 2016, 55, 3290-3294).
The D50 values were calculated using the following equation:
(§1) where A0—absorbance at λmax at εr=0, λmax—the highest reached absorbance at λmax, d—dielectric constant of 1,4-dioxane-water mixture at a given point, Hill—Hill slope coefficient determining the steepness of a dose-response curve, D50—corresponds to d value that provokes half of the absorbance amplitude (λmax−A0).
Measurements of the absorbance changes in 1,4-dioxane-water mixtures were performed by pipetting 2 μL stock solutions of dyes or probes in DMSO into a 96 glass bottom well plate (11 wells per sample) made from propylene (Corning 3364). To the wells going from right to left 300 μL of 1,4-dioxane-water mixtures containing 100%, 90%, 80%, 70%, 60%, 50%, 40%, 30%, 20%, 10% or 0% 1,4-dioxane was added (if needed, mixtures with 0.3% SDS are used, with an exception in 100% dioxane due to solubility issues). After incubation for 1 hour at room temperature, absorption of solutions in each well was recorded from 320 nm to 850 nm with wavelength step size of 1 nm on a multiwell plate reader Spark® 20M (Tecan). The background absorption of the glass bottom plate was measured in wells containing only 1,4-dioxane-water mixture with similar amount of DMSO and subtracted from the spectra of the samples. […]
as §1, with “λmax.” for “λmax,”
The ability of the fluorophores to switch between spirolactone and zwitterion states can be characterized by measuring the absorbance in water-1,4-dioxane mixtures with known dielectric constant (Åkerlöf G, Short A O. J Am Chem Soc 1936, 58(7): 1241-1243). D50 is commonly used as numeric value for the evaluation of the equilibrium changes and represents a dielectric constant at which absorbance is halved.

HeLa cells = experiment: Cell cycle analysis by imaging flow cytometry and EC50 determination (subG1 cells, cytotoxicity of tubulin probes); type: cell-based; conditions: 24 h incubation at 37° C. in growth media; compared with parent compound larotaxel
Experimental: HeLa cells were grown in 6-well plates (^˜250.000 cells per well) for 24 h in the presence of the fluorescent probe in variable concentrations. The probes were dissolved in DMSO at 500-2000-fold stock concentration and added to the media of cultured cells at 500-2000-fold dilution accordingly. In parallel, the appropriate DMSO control samples were prepared by adding corresponding amount of DMSO volume to the separate well. Cells were processed according to the NucleoCounter® NC-3000™ two-step cell cycle analysis protocol for cells attached to T-flasks, cell culture plates or micro-carriers. […] Cells were counted on a NucleoCounter® NC-3000™ in NC-Slide A2™ slides (Chemometec, Cat. No. 942-0001) loaded with ˜30 μl of each of the cell suspensions into the chambers of the slide. Each time, ^˜10.000 cells in total were measured, and the obtained cell cycle histograms were analysed with ChemoMetec NucleoView NC-3000 software, version 2.1.25.8. […] The EC50 values were determined by plotting the percentage of cells in subG1 phase and fitting the curve in GraphPad Prism 6 to the following function: […]
As mentioned above, FIG. 3. illustrates the tubulin labelling of mammalian cells: a, structures of the tubulin probes. b, Wide-field fluorescence microscopy of living primary fibroblasts stained 100 nM TMR-LTX isomers for 1 h at 37° C. […]

tubulin = experiment: Wide-field fluorescence microscopy of living primary fibroblasts stained with tubulin probes; type: cell-based, human
Experimental: Human primary dermal fibroblasts and HeLa cells were cultured in high-glucose DMEM (Life Technologies, Cat. No. 31053-028) supplemented with GlutaMAX-1 (Life Technologies, Cat. No. 35050-038) and 10% fetal bovine serum (FBS, Life Technologies, Cat. No. 10270-106) in a humidified 5% CO2 incubator at 37° C. The cells were split every 3-4 days or at confluence. Cells were seeded in glass bottom 12-well plates (MatTek Corporation, Cat. No. P12G-1.0-14-F).
Cells were stained with the fluorescent probes in DMEM (Thermo Fisher Scientific, Cat. No. 31053-028) supplemented with 10% FBS (Thermo Fisher Scientific, Cat. No. 10082139) at 37° C. and 5% CO2. […]
Actin/tubulin cytosolic signal was estimated using CellProfiler v.3.1.8. […] The background was subtracted from the original probe channel, and actin/tubulin staining was measured as mean pixel intensity per object in background-corrected probe channel. […]
As mentioned above, FIG. 3. illustrates the tubulin labelling of mammalian cells: a, structures of the tubulin probes. b, Wide-field fluorescence microscopy of living primary fibroblasts stained 100 nM TMR-LTX isomers for 1 h at 37° C. […] Hoechst staining is shown in cyan and all tubulin probes were shown in magenta. c, Quantification of fluorescence signal in the cytoplasm of living cells stained with tubulin probes. […]

SMILES | D50 [1] | EC50, accumulation of subG1 phase cells (cytotoxicity) (HeLa cells) | membrane permeability (tubulin; living cells, 100 nM probe, 1 h at 37° C., compared to 5′- and 6′-isomers) | tubulin labelling specificity (tubulin; mammalian cells, simple incubation with probe)
CO[C@H]1C(=O)[C@]2(C)[C@@H](OC)C[C@H]3OC[C@@]3(OC(C)=O)[C@H]2[C@H](OC(=O)c2ccccc2)[C@]2(O)C[C@H](OC(=O)[C@H](O)[C@@H](NC(=O)CCCCCCCNC(=O)c3cccc4c3C(=O)OC43c4ccc(N(C)C)cc4[Si](C)(C)c4cc(N(C)C)ccc43)c3ccccc3)C(C)=C1C2(C)C [SiR-CTX 4′-isomer] | >80 | – | – | –
CC(=O)O[C@H]1C(=O)[C@]23C[C@H]2C[C@H]2OC[C@@]2(OC(C)=O)[C@H]3[C@H](OC(=O)c2ccccc2)[C@]2(O)C[C@H](OC(=O)[C@H](O)[C@@H](NC(=O)CCCCCCCNC(=O)c3cccc4c3C(=O)OC43c4ccc(N(C)C)cc4Oc4cc(N(C)C)ccc43)c3ccccc3)C(C)=C1C2(C)C [TMR-LTX 4′-isomer] | 26.5 ± 0.5 | almost as efficiently as parent compound | excellent membrane permeability | highly specific tubulin labelling
CO[C@H]1C(=O)[C@]2(C)[C@@H](OC)C[C@H]3OC[C@@]3(OC(C)=O)[C@H]2[C@H](OC(=O)c2ccccc2)[C@]2(O)C[C@H](OC(=O)[C@H](O)[C@@H](NC(=O)CCCCCCCNC(=O)c3cccc4c3C(=O)OC43c4ccc(N(C)C)cc4C(C)(C)c4cc(N(C)C)ccc43)c3ccccc3)C(C)=C1C2(C)C [610CP-CTX 4′-isomer] | 65 ± 2 | – | – | –
CNc1ccc2c(c1)C(C)(C)c1cc(NC)ccc1C21OC(=O)c2c(C(=O)NCCCCCCCC(=O)N[C@@H](c3ccccc3)[C@@H](O)C(=O)O[C@H]3C[C@@]4(O)[C@@H](OC(=O)c5ccccc5)[C@@H]5[C@]6(OC(C)=O)CO[C@@H]6C[C@@H]6C[C@@]65C(=O)[C@H](OC(C)=O)C(=C3C)C4(C)C)cccc21 [580CP-LTX 4′-isomer] | 62 ± 1 | – | – | –
